Experimental data taken from patent EP1611112B1, “ISOXAZOLE COMPOUNDS AS INHIBITORS OF HEAT SHOCK PROTEINS” (Vernalis (Cambridge) Limited, priority 2003, dated 2004).

system: not listed separately; test: Sulforhodamine B (SRB) growth inhibition / growth arrest assay; assay type: cell-based; conditions: cell line not named
Description: A growth inhibition assay was also employed for the evaluation of candidate HSP90 inhibitors: • Assessment of cytotoxicity by Sulforhodamine B (SRB) assay: calculation of 50% inhibitory concentration (IC50).
• 1) Determine cell number by haemocytometer. • 2) Using an 8 channel multipipettor, add 160µl of the cell suspension (3600 cells/well or 2 x 10^4 cells/ml) to each well of a 96-well microtitre plate. • 3) Incubate overnight at 37°C in a CO2 incubator. […]
• 8) Tip off medium into sink and immerse plate slowly into 10% ice cold trichloroacetic acid (TCA). […] Leave for 15 mins. • 12)Wash off unbound SRB stain with four washes of 1% acetic acid. • 13)Dry plates in incubator. • 14)Solubilise SRB using 100µl of 10mM Tris base and put plates on plate shaker for 5 mins. • 15)Determine absorbance at 540nm using a plate reader. Calculate mean absorbance for quadruplicate wells and express as a percentage of value for control, untreated wells. • 16)Plot % absorbance values versus log drug concentration and determine the IC50. […]

**Q.** For `COc1ccc(-c2c(C)noc2-c2cc(Br)c(O)cc2O)cc1` [Example 2, 4-Bromo-6-[4-(4-methoxy-phenyl)-3-methyl-isoxazol-5-yl]-benzene-1,3-diol], which IC50 is on record?
**A.** Its IC50 is less than 50 µM.

target: T1, yeast HSP90 (Saccharomyces cerevisiae, UniProt P02829); test: Malachite Green ATPase assay; assay type: biochemical; conditions: activity range
T1 construct: made in house; host or cells: E. coli
T1 sequence (P02829 whole entry): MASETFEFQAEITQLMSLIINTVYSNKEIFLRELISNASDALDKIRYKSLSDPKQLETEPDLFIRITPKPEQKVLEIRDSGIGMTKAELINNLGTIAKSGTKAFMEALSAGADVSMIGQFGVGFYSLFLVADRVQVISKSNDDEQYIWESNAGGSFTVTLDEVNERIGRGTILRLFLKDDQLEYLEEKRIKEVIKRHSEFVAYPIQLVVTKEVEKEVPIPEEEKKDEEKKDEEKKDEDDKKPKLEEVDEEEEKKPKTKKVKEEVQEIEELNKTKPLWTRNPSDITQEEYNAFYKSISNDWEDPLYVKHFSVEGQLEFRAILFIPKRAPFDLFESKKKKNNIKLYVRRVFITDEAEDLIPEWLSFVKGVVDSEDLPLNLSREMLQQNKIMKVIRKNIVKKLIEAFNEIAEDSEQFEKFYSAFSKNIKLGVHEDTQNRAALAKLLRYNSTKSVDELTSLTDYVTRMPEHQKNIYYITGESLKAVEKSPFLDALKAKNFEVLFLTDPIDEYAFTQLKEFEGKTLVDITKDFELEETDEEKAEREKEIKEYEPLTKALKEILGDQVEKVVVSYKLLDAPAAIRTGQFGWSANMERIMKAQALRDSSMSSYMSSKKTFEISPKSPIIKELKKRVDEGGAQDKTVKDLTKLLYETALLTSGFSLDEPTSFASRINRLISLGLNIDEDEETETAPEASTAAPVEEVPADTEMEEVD
From the text: The intrinsic ATPase activity of HSP90 may be measured using yeast HSP90 as a model system. The assay, based on the use of malachite green for the measurement of inorganic phosphate, was used to test the HSP90 inhibitory activity of some of the compounds of the Examples herein.
Malachite Green ATPase Assay
Chemicals are of the highest purity commercially available and all aqueous solutions are made up in AR water. Because of the need to minimise contamination with inorganic phosphate, precautions should be taken with solutions and apparatus used in the assays. Glassware and pH meters are rinsed with double distilled or deionised water before use and, wherever possible, plastic ware should be used. Gloves are worn for all procedures. • (1) Greiner 384-well (Greiner 781101) or Costar 384-well flat-bottomed polystyrene multiwell plates (VWR). • (2) Assay buffer of (a) 100mM Tris-HCI, pH 7.4, (b) 150mM KCI, (c) 6mM MgCl2. Stored at room temperature. • (3) 0.0812% (w/v) malachite green (M 9636, Sigma Aldrich Ltd., Poole, UK). Stored at room temperature. • (4) 2.32% (w/v) polyvinyl alcohol USP (P 1097, Sigma Aldrich Ltd, Poole, UK) in boiling water (see Comment 1), allowed to cool, and stored at room temperature. • (5) 5.72% (w/v) ammonium molybdate in 6 M hydrochloric acid. Stored at room temperature. • (6) 34% (w/v) sodium citrate. Stored at room temperature. • (7) 100mM ATP, disodium salt, special quality (47699, Sigma Aldrich). Stored at -20°C. • (8) E. coli expressed yeast HSP90 protein, purified >95% (see, e.g., Panaretou et al., 1998) and stored in 50uL aliquots at -80°C.
• 1. Dilute test compounds to 500µM in AR water (DMSO concentration will be 2.5%). Transfer 2.5µl of these compounds directly from the daughter plate to the assay plate, giving a final assay concentration of 100µM. […] Column 1 in the assay plate contains no compound, as a negative control. An additional row with no compound is also used as a background. • 2. Prepare ATP by diluting 100mM stock to 925µM with assay buffer, and aliquot 5µl of diluted ATP to each well including controls (final assay concentration 370µM). • 3. Add 5µl of buffer to background row. • 4. Dilute enzyme preparation to 1.05µM with assay buffer, and aliquot 5µl into each compound well and to the negative control column. • 5. Collect the reagents to the bottom of the well, cover plate with plate seal and incubate overnight at 37degC. • 6. First thing in the morning prepare the Malachite Green Reagent. Add 2parts of Malachite Green Solution, 1 part of Polyvinyl Alcohol Solution, 1 part of Ammonium Molybdate Solution, and 2 parts of AR water. • 7. Invert to mix, and leave for approximately 1 hour until the colour turns from brown to golden yellow. • 8. Add 40µl of Malachite Green Reagent to each well, allow 5 mins for colour to develop. • 9. Add 5µl of Sodium Citrate Reagent to each well (see comment 2) • 10. Re-cover with plate seal and shake on plate shaker for at least 15 mins. • 11. Measure Absorbance at 620nm using a suitable plate reader (e.g. Victor, Perkin Elmer Life Sciences, Milton Keynes, UK). Under these conditions, the control absorbance is 0.9 to 1.4, and the background is 0.2-0.35 giving a signal to noise ratio of -12. The Z' factor calculated from data obtained using these conditions is between 0.6 and 0.9.
• (1) The polyvinyl alcohol dissolves in boiling water with difficulty and stirring for 2-3 h is required. • (2) The time interval between addition of the malachite green reagent and the sodium citrate should be kept as short as possible in order to reduce the non-enzymatic hydrolysis of ATP. Once the sodium citrate is added, the colour is stable for up to 4 h at room temperature. • (3) Compounds can be added to the assay plates using a Biomek FX Robot (Beckman Coulter). […]

**Q.** For `Cc1noc(-c2ccc(O)cc2O)c1-c1ccc2c(c1)OCCO2` [Example 5], which IC50 is on record?
**A.** The IC50 was greater than 50 µM.

**Q.** For `Oc1ccc(Cl)cc1-c1oncc1-c1ccc2c(c1)OCCO2` [Example 6], which IC50 is on record?
**A.** The IC50 was greater than 50 µM.

**Q.** For `Oc1ccccc1-c1oncc1-c1ccc2c(c1)OCCO2` [Example 7], which IC50 is on record?
**A.** The IC50 was greater than 50 µM.

**Q.** Which IC50 does the source give for `COc1ccc(-c2cnoc2-c2cc(Cl)c(O)cc2O)cc1OC` [Example 8] here?
**A.** The IC50 was greater than 50 µM.

**Q.** For `Cc1noc(-c2ccc(O)cc2O)c1-c1ccc(F)cc1` [Example 9], which IC50 is on record?
**A.** The IC50 was less than 50 µM.

**Q.** For `Cc1noc(-c2cc(Cl)c(O)cc2O)c1-c1ccccc1` [Example 10], which IC50 is on record?
**A.** Its IC50 is less than 50 µM.

**Q.** With `CCc1cc(-c2oncc2-c2ccc(OC)c(OC)c2)c(O)cc1O` [Example 11] as the compound, how does the IC50 read?
**A.** The IC50 was less than 50 µM.

**Q.** Which IC50 does the source give for `COc1ccc(-c2c(C)noc2-c2cc(-c3cccnc3)c(O)cc2O)cc1` [Example 12] here?
**A.** Its IC50 is greater than 50 µM.

**Q.** Which IC50 does the source give for `Oc1cc(O)c(-c2oncc2-c2ccc(Br)cc2)cc1Cl` [Example 12a] here?
**A.** The IC50 was less than 50 µM.

**Q.** Which IC50 does the source give for `Cc1cc(O)cc(O)c1-c1oncc1-c1csc(-c2ccccc2)n1` [Example 12c] here?
**A.** The IC50 was less than 50 µM.

**Q.** With `Cc1cc(O)cc(O)c1-c1onc(C(F)(F)F)c1-c1cscn1` [Example 12d] as the compound, how does the IC50 read?
**A.** The IC50 was less than 50 µM.

**Q.** With `COc1ccc(-c2c(C)noc2-c2cc(C=O)c(O)cc2O)cc1` [Example 17] as the compound, how does the IC50 read?
**A.** Its IC50 is greater than 50 µM.

**Q.** With `COc1ccc(-c2c(C)noc2-c2cc(C(=S)Nc3ccccc3)c(O)cc2O)cc1` [Example 18] as the compound, how does the IC50 read?
**A.** Its IC50 is greater than 50 µM.

**Q.** For `COc1ccc(-c2c(C)noc2-c2cc(C(=O)Nc3ccccc3OC)c(O)cc2O)cc1` [Example 19], which IC50 is on record?
**A.** The IC50 was less than 50 µM.

**Q.** For `COc1ccc(-c2c(C)noc2-c2cc(C(OC)c3ccccc3)c(O)cc2O)cc1` (stereo not shown) [Example 20], which IC50 is on record?
**A.** Its IC50 is less than 50 µM.

**Q.** With `CCCCCc1noc(-c2ccc(O)cc2O)c1-c1ccc(OC)cc1` [Example 21] as the compound, how does the IC50 read?
**A.** The IC50 was less than 50 µM.

target: T2, human full-length HSP90 (Homo sapiens, UniProt P08238); test: Fluorescence Polarisation Assay (displacement of fluorescein-labelled probe RBT0045864-FAM); assay type: binding; conditions: Fluorescence Polarisation Assay, activity range
T2 construct: E. coli expressed human full-length HSP90 protein; made in house; host or cells: E. coli
T2 sequence (P08238 whole entry): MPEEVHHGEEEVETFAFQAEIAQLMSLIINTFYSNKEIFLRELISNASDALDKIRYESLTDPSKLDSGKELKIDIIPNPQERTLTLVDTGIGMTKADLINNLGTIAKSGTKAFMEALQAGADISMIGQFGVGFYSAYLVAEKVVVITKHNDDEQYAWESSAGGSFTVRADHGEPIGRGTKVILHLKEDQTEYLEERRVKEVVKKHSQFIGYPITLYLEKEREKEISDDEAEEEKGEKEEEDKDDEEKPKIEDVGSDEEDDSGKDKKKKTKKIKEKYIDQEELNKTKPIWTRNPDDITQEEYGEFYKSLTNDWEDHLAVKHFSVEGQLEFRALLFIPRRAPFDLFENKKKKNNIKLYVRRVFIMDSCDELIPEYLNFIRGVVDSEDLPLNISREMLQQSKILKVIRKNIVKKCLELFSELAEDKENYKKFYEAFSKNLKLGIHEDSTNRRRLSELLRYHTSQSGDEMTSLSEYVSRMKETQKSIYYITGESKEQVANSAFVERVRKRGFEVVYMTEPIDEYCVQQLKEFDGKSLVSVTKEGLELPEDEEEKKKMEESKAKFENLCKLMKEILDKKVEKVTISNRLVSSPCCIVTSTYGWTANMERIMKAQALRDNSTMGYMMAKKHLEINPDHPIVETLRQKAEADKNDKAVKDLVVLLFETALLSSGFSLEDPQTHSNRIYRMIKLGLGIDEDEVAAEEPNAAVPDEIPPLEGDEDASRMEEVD
From the text: A Fluorescence Polarization_assay was also employed for the evaluation of some of the compounds of the Examples:
Fluorescence polarization {also known as fluorescence anisotropy} measures the rotation of a fluorescing species in solution, where the larger molecule the more polarized the fluorescence emission.
When the fluorophore is excited with polarized light, the emitted light is also polarized. The molecular size is proportional to the polarization of the fluorescence emission.
Test compound is added to the assay plate, left to equilibrate and the anisotropy measured again. Any change in anisotropy is due to competitive binding of compound to HSP90, thereby releasing probe.
Stored at room temperature. • 3) BSA (bovine serum albumen) 10 mg/ml (New England Biolabs # B9001S) • 4) 20 mM probe in 100 % DMSO stock concentration. Stored in the dark at RT. Working concentration is 200 nM diluted in AR water and stored at 4 °C.
1) Add 100µl 1x buffer to wells 11A and 12A (=FP BLNK) 2) Prepare assay mix - all reagents are kept on ice with a lid on the bucket as the probe is light-sensitive.
This gives 2.5 mM {50x} stock cpd - assuming cpds 20 mM. • 4) Repeat for wells A2 to A10. Control in columns 11 and 12. • 5) Transfer 5 µl from row A to row B- not column 12. Mix well. • 6) Transfer 5 µl from row B to row C. […] Add 2 µl of 100mM standard cpd to wells B12 - H12 {is positive control } • 13)The Z' factor is calculated from zero controls and positive wells.

**Q.** For `COc1ccc(-c2c(C)noc2-c2cc(Br)c(O)cc2O)cc1` [Example 2, 4-Bromo-6-[4-(4-methoxy-phenyl)-3-methyl-isoxazol-5-yl]-benzene-1,3-diol], which IC50 is on record?
**A.** Its IC50 is less than 10 µM.

same assay, conditions: table names no assay; parent examples tested in fluorescence polarization assay

**Q.** For `CC(C)NC(=O)c1noc(-c2cc(C(C)C)c(O)cc2O)c1-c1ccc(CNC(C)(C)C)cc1` [Example 78z], which IC50 is on record?
**A.** Its IC50 is less than 10 µM.
